Experimental data published in ChEMBL document CHEMBL1201862, “PubChem BioAssay data set” (2004).
Activity calls are given as the source filed them.

Legend:
[1] = target: T1, Low molecular weight phosphotyrosine protein phosphatase (Homo sapiens, UniProt P24666); type: functional; details: read-out: IC50_Mean
T1 sequence (P24666 whole entry): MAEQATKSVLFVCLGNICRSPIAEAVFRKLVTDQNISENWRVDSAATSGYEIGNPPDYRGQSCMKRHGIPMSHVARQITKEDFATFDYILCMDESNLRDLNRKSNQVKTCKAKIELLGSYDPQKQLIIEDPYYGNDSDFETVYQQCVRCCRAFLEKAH

[2] = target: T1, Low molecular weight phosphotyrosine protein phosphatase; type: functional; details: read-out: IC50_Mean; remark: listed apart in the source
[3] = target: Adenosylmethionine-8-amino-7-oxononanoate aminotransferase (Mycobacterium tuberculosis, UniProt P9WQ81); assay: Mycobacterium tuberculosis BioA enzyme inhibitor Measured in Biochemical System Using Plate Reader - 2163-02_Inhibitor_Dose_CherryPick_Activity.; type: functional, Mycobacterium tuberculosis UT205
Vero = assay: cells; type: functional; details: Chlorocebus sabaeus
[4] = Fluorescence-based cell-based high throughput dose response assay for inhibitors of the interaction of nucleotide-binding oligomerization domain containing 2 (NOD2) and the receptor-interacting serine-threonine kinase 2 (RIPK2).; type: functional; details: Homo sapiens
Melanocortin receptor 4 = Melanocortin receptor 4 (Homo sapiens, UniProt P32245); assay: MC4R antagonist potency on cAMP, dose response, cell-based, TR-FRET, biased antagonists (AID 602298); type: functional;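 note: antagonist potency against agonist-stimulated cAMP production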
[5] = nonselective inhibitors of cellular cAMP signaling, dose response, counter-screen for MC4R biased antagonist project, cell-based, TR-FRET cAMP detection (AID 602305); type: functional;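 note: U2OS cells stimulated with forskolin near its EC80 as the cAMP inducer; potency is for inhibition of forskolin-stimulated cAMP signaling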
[6] = AlphaScreen signal interference compounds, dose response, artefact control for ARNT-TACC3 interaction inhibitor project, biochemical, luminescence, cherry-pick (AID 651705); type: functional;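 note: AlphaScreen bead proximity signal that flags compounds interfering with the detection technology; potency reflects signal decrease which marks the compound as an assay artifact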
[7] = target: T2, Apoptotic protease-activating factor 1 (Homo sapiens, UniProt O14727); assay: SAR analysis of small molecule Activators of Apaf-1 in a Fluorescent assay.; type: functional; details: read-out: EC50_Mean;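 note: caspase-3 cleavage of fluorogenic Rh110 DEVD substrate downstream of apoptosome activation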
T2 sequence (O14727 whole entry): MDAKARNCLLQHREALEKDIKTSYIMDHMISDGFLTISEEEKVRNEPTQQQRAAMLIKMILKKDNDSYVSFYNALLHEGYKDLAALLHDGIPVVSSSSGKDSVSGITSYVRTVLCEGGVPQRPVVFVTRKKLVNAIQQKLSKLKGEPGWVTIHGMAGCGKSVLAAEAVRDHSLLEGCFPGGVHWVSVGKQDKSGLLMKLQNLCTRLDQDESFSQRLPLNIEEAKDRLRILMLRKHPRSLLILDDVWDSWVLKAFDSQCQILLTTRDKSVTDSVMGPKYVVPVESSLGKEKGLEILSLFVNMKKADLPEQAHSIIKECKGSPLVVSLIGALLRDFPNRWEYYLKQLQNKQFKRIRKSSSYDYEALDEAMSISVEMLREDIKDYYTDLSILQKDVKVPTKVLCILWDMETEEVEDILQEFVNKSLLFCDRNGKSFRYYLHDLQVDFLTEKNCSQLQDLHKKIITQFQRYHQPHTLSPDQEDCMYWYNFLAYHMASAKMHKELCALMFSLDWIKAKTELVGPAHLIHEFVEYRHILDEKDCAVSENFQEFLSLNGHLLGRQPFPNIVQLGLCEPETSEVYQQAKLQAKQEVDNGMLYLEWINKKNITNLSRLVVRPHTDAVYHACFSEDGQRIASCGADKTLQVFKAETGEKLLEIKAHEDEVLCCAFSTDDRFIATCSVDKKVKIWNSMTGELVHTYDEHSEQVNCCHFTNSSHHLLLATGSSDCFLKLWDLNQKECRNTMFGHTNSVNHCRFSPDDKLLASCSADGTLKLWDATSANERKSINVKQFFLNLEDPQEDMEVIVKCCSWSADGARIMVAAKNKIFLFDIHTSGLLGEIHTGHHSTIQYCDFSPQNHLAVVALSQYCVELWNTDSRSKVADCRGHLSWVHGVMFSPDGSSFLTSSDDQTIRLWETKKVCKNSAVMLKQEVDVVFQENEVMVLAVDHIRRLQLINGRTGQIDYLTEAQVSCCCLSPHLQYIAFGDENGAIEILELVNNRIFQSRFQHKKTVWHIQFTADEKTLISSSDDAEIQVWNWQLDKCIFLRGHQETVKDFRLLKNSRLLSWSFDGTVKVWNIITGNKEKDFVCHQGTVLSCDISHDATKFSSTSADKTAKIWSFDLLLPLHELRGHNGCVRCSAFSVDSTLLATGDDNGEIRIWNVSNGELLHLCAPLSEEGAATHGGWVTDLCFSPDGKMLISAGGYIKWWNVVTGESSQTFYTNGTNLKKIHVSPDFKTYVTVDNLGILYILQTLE

[8] = target: Aryl hydrocarbon receptor (Homo sapiens, UniProt P35869); details: Potency;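 note: confirmatory quantitative high-throughput screen measuring activation of the AhR signaling pathway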
[9] = target: T3, High affinity choline transporter 1 (Homo sapiens, UniProt Q9GZV3); assay: CHT inhibitors, dose response, cell-based, 5-point CRC, membrane potential dye (AID 504840); type: functional
T3 sequence (Q9GZV3 whole entry): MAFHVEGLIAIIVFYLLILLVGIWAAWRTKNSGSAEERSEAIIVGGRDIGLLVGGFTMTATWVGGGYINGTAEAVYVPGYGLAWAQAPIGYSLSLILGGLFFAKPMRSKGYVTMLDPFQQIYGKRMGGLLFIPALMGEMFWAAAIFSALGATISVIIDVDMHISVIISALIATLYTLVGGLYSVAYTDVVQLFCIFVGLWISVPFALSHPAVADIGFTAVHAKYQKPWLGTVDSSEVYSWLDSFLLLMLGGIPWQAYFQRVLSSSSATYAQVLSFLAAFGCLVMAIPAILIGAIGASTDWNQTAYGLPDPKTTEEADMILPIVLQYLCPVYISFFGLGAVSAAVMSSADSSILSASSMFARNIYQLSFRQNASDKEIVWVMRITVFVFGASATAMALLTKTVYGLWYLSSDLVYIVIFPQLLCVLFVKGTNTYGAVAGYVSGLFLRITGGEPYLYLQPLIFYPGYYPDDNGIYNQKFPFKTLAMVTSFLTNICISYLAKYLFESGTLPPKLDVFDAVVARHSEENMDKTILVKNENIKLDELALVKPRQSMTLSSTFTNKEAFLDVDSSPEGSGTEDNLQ

[10] = target: T3, High affinity choline transporter 1; assay: CHT inhibitors, dose response, cell-based, 10-point CRC, membrane potential dye (AID 588401); type: functional;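 note: membrane potential dye fluorescence of choline-evoked depolarization via CHT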
[11] = ADAM10 inhibitors, peptide cleavage, dose response, biochemical, QFRET (AID 743254);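 note: ADAM10 enzyme with the DM2 quenched FRET peptide as substrate; EDANS fluorescence gain as the protease cuts the substrate; inhibitor potency against ADAM10 proteolytic activity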
[12] = target: DNA (cytosine-5)-methyltransferase 1 (Homo sapiens, UniProt P26358); assay: DNMT1 methyltransferase inhibitors, confirmation, biochemical, fluorescent molecular beacon (AID 602386); type: functional
[13] = Luminescence Cell-Based Dose Retest to Confirm Inhibitors of Cancer Stem Cells. [Related pubchem assays (depositor defined):AID2717, AID2721]; type: functional; details: Homo sapiens
[14] = tested on: Streptococcus sp. 'group A'; assay: growth inhibition of control SK(-) GAS strain, dose response, counter-screen for streptokinase expression inhibitor project, luminescence, kanamycin, BacTiterGlo, confirmation (AID 1900); type: functional, organism-based
[15] = target: Disintegrin and metalloproteinase domain-containing protein 17 (Homo sapiens, UniProt P78536); assay: ADAM17 protease inhibitors, dose response, counter-screen for ADAM10 exosite inhibitor project, biochemical, quenched FRET substrate (AID 743253)
Streptococcus = assay: Group A Streptococcus viability loss, dose response, counter-screen for streptokinase expression inhibitor project, luminescence, BacTiterGlo (AID 1915); type: functional, organism-based;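 note: potency for reduction of bacterial viability or growth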
[16] = target: Induced myeloid leukemia cell differentiation protein Mcl-1 (Homo sapiens, UniProt Q07820); type: functional
[17] = target: T4, Sentrin-specific protease 8 (Homo sapiens, UniProt Q96LD8); type: functional
T4 sequence (Q96LD8 whole entry): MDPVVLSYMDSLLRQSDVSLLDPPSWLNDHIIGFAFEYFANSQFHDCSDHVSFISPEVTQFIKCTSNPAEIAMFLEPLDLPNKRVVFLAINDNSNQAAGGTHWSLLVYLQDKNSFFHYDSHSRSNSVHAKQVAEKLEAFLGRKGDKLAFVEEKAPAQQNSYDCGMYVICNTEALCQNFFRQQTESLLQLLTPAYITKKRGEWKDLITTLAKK

[18] = target: T4, Sentrin-specific protease 8; type: functional; remark: listed apart in the source
[19] = Vero cell cytotoxicity, cytotoxicity control for M. tuberculosis inhibitor project, purified and synthesized samples, set 3 (AID 504684); type: functional
[20] = target: T5, ATP-dependent translocase ABCB1 (Homo sapiens, UniProt P08183); assay: ABCB1 efflux inhibitor potency, dose response, Jurkat-DNR cells, JC-1, flow cytometry, set 2 (AID 504569); type: functional; details: read-out: EC50_MICROM_;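 note: potency of pump inhibitors that raise cellular JC-1 green fluorescence up to the nicardipine level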
[21] = target: T5, ATP-dependent translocase ABCB1; assay: ABCG2 efflux pump inhibitor potency, dose response, Ig-MXP3 cells, JC-1, flow cytometry, set 2 (AID 504566); type: functional; details: read-out: EC50_MICROM_;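 note: flow cytometry median green fluorescence of retained JC-1 dye; potency of efflux pump inhibition measured as rising substrate retention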
[22] = target: Serine/threonine-protein kinase pim-1 (Homo sapiens, UniProt P11309); type: functional
[23] = target: MAP kinase-interacting serine/threonine-protein kinase 2 (Homo sapiens, UniProt Q9HBH9); type: functional
[24] = target: cAMP-dependent protein kinase catalytic subunit alpha (Homo sapiens, UniProt P17612); type: functional
[25] = target: Cell division cycle 7-related protein kinase (Homo sapiens, UniProt O00311); type: functional;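 note: value obtained from a kinome-wide kinase panel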
[26] = target: Homeodomain-interacting protein kinase 2 (Homo sapiens, UniProt Q9H2X6); type: functional;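 note: measured within a kinome-wide kinase profiling panel, HIPK2 being one panel member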
[27] = target: Mitogen-activated protein kinase kinase kinase kinase 4 (Homo sapiens, UniProt O95819); type: functional
[28] = target: Dual specificity protein kinase CLK4 (Homo sapiens, UniProt Q9HAZ1); type: functional
[29] = target: T6, Interleukin-1 receptor-associated kinase 4 (Homo sapiens, UniProt Q9NWZ3); type: functional
T6 sequence (Q9NWZ3 whole entry): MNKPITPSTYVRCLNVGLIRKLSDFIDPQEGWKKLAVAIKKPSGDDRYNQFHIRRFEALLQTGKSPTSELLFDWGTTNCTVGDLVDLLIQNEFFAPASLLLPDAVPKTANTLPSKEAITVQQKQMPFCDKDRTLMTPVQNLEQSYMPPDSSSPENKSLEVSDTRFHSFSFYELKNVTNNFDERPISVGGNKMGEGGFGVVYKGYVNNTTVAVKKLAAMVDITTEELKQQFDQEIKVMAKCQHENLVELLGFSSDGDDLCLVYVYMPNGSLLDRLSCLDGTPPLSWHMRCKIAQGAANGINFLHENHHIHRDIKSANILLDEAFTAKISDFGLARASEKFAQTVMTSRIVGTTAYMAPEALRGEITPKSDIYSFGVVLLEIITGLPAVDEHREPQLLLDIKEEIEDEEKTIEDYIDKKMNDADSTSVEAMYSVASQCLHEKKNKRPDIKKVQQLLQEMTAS

[30] = target: Glycogen synthase kinase-3 beta (Homo sapiens, UniProt P49841); type: functional;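 note: value comes from a broad kinome profiling panel, with GSK3B as the panel member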
[31] = A cytotoxicity screen of small molecule inhibitors of the PhoP region in Salmonella typhi identified in the primary screen. [Related pubchem assays: 1850, 1864, 1985 ]; type: functional

T5 sequence (P08183 whole entry): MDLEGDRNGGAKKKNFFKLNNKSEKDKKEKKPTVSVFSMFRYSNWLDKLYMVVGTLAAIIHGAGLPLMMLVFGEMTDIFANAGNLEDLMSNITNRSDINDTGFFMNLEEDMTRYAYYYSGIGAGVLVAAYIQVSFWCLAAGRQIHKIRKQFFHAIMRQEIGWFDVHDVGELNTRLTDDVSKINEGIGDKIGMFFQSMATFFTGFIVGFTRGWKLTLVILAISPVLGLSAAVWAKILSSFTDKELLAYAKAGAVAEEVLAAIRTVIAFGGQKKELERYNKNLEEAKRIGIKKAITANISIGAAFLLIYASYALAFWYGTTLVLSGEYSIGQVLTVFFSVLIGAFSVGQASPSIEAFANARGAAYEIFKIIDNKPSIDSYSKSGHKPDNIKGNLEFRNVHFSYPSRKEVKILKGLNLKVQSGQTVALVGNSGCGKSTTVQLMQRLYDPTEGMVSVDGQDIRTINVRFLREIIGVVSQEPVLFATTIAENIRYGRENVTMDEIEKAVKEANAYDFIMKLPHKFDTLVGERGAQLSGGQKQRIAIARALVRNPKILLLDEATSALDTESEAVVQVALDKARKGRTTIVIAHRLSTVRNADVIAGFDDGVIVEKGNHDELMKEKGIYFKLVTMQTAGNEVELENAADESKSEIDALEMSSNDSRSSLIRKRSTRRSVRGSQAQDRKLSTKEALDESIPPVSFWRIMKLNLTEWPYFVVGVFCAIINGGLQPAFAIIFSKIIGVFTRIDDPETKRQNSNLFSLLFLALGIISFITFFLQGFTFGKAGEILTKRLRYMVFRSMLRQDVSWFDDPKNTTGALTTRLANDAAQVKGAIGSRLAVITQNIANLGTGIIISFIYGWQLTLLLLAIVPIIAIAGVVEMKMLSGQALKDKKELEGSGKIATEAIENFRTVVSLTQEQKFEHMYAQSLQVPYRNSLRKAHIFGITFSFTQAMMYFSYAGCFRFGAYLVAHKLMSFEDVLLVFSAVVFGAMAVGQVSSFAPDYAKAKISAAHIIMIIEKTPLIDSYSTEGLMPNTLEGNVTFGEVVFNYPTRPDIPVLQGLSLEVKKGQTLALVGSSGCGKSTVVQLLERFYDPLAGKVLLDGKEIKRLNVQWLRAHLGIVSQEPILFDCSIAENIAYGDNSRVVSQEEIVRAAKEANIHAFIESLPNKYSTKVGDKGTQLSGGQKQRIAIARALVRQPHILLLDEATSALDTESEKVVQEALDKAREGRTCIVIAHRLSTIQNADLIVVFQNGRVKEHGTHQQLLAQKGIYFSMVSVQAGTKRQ
Chain of Melanocortin receptor 4 (P32245 whole entry): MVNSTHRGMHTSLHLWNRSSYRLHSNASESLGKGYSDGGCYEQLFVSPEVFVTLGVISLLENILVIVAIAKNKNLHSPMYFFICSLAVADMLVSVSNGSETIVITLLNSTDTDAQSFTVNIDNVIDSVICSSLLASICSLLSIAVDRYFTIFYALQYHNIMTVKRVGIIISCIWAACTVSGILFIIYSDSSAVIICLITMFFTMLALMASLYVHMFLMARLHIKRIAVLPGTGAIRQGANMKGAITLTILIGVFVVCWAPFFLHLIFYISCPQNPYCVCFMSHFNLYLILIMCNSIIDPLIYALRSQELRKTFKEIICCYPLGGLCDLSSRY
Chain of DNA (cytosine-5)-methyltransferase 1 (P26358 whole entry): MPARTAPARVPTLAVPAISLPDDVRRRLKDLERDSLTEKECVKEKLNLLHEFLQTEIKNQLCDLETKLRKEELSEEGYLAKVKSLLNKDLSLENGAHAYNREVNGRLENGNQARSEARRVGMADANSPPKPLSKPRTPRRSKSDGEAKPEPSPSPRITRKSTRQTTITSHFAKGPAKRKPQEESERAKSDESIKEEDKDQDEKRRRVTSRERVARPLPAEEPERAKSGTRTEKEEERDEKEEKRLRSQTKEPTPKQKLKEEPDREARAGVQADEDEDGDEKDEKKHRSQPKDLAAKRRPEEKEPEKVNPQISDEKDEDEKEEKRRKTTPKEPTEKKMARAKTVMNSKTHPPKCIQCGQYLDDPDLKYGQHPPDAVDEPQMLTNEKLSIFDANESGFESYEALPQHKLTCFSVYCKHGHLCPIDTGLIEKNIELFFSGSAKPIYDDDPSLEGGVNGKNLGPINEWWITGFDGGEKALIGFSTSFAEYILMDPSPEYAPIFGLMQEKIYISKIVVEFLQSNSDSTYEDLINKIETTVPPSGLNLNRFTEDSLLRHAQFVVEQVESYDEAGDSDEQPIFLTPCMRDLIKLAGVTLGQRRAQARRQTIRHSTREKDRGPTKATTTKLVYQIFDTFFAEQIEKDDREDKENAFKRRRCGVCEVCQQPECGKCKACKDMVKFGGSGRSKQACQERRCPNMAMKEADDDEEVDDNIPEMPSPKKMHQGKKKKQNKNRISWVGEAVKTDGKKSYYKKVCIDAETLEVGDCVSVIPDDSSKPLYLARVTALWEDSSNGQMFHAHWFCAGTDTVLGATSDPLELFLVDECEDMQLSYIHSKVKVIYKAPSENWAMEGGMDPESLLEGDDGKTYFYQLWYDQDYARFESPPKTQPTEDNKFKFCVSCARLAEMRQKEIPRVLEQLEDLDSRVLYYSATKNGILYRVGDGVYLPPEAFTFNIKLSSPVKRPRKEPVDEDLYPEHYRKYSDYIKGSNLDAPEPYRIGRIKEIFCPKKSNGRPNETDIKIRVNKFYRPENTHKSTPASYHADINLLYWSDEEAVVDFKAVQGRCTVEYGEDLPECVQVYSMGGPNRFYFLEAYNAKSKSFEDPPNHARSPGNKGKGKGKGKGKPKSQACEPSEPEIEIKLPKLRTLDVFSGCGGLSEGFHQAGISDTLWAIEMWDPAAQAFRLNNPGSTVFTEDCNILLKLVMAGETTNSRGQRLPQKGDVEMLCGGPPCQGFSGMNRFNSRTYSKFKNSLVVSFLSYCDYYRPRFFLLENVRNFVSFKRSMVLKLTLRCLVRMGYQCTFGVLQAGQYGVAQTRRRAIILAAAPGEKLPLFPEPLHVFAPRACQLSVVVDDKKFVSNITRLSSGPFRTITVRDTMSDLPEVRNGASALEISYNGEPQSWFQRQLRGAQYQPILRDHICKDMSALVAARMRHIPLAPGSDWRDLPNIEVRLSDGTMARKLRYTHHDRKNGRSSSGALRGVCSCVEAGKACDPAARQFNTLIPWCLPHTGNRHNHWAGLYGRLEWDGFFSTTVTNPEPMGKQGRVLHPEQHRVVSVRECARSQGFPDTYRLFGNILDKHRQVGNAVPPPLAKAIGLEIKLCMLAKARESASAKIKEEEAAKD
Chain of Dual specificity protein kinase CLK4 (Q9HAZ1 whole entry): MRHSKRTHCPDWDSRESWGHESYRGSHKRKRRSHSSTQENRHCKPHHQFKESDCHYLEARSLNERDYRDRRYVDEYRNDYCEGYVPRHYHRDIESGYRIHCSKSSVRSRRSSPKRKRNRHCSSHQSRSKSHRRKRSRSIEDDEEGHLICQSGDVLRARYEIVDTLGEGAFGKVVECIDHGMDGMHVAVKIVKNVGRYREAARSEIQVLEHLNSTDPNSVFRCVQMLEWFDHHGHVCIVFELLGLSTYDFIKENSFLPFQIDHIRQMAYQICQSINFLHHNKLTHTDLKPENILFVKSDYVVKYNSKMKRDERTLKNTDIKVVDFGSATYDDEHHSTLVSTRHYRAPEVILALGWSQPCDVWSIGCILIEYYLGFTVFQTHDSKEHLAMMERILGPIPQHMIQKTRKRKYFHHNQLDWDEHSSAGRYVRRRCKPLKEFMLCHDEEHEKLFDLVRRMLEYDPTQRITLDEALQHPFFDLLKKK
Chain of Homeodomain-interacting protein kinase 2 (Q9H2X6 whole entry): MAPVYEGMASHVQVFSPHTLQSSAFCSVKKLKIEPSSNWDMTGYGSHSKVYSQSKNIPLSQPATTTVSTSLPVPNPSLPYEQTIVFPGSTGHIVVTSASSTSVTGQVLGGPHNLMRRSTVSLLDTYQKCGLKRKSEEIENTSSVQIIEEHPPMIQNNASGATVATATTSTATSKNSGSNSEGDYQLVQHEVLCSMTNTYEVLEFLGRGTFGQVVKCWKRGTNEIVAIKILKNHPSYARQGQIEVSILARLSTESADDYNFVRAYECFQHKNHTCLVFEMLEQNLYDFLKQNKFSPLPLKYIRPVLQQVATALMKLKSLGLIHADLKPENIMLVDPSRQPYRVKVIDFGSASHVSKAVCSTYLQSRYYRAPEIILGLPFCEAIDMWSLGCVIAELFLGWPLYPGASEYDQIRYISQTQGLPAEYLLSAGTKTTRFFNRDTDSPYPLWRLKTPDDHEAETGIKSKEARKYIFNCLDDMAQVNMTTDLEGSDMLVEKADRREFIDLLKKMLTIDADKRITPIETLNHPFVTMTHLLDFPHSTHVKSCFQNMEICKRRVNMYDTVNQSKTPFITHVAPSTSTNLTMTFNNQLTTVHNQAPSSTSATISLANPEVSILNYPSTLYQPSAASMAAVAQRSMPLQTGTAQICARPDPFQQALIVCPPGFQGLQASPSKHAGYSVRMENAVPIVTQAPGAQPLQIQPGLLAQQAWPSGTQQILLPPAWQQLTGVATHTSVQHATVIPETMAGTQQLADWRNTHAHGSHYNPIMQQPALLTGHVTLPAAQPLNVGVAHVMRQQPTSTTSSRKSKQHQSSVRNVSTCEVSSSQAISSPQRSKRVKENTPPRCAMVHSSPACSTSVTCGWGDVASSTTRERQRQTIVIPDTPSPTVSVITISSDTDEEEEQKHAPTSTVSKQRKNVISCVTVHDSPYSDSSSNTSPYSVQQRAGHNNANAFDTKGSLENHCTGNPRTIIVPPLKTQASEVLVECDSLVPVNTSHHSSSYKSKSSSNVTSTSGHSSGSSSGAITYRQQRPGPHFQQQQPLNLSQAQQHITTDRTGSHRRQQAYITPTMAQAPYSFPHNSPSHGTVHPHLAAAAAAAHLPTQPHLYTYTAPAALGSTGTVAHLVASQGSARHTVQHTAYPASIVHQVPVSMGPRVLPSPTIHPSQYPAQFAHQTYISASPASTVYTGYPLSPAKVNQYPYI

CCc1nc(N)nc(N)c1-c1ccc(Cl)c(N=[N+]=[N-])c1
IC50 [1]: 24.2 µM (inactive) | IC50 [2]: 14.3 µM (active)

CC(=O)c1ccc(NC(=O)COC(=O)Cc2ccsc2)cc1
AC50 [3]: 6.97 µM (active)

O=C1Nc2ccccc2/C1=C\C(=O)c1ccccc1
CC50 (Vero): > 25 µM (active) | IC50 [4]: 5 µM (active)

Cc1ccc(S(=O)(=O)NCC(=O)OCc2nnc(-c3ccccc3)o2)cc1
IC50 (Melanocortin receptor 4): > 64.6 µM (inactive) | IC50 [5]: > 64.6 µM (inactive)

O=C(COc1ccccc1)Nc1nnc(-c2ccco2)o1
AC50 [6]: 95 µM (active)

CCOc1ccc(C(=O)CC(C(=O)O)c2cn(C)c3ccccc23)cc1 (stereo not drawn)
EC50 [7]: > 100 µM (inactive)

O=C=Nc1ccc(Cl)c(Cl)c1
AC50 [8]: 56.2 µM (inconclusive)

Cc1cc(NS(=O)(=O)c2ccc(NC(=O)c3ccc(Cl)cc3Cl)cc2)no1
IC50 [9]: 5.81 µM (active) | IC50 [10]: 4.47 µM (active)

COc1cc2c(cc1NC(=O)COC(=O)CNS(=O)(=O)c1ccc(C)cc1)oc1ccccc12
IC50 (Melanocortin receptor 4): > 64.6 µM (inactive) | IC50 [5]: > 64.6 µM (inactive)

Cc1ccc(C2C(/C=C3/SC(=S)NC3=O)=C(c3cccs3)Oc3ccccc32)cc1 (stereo not drawn)
IC50 [11]: 16.7 µM (inactive) | IC50 [12]: 3.74 µM (active) | AC50 [13]: 0.874 µM (active) | EC50 [14]: 0.649 µM (active) | IC50 [15]: 33.7 µM (inactive) | EC50 (Streptococcus): 1.11 µM (active) | IC50 [16]: 3.63 µM (active)

CCOc1cc(C(c2c(C)[nH][nH]c2=O)c2c(C)[nH][nH]c2=O)ccc1OS(=O)(=O)c1ccccc1
IC50 [17]: 33.2 µM (active) | IC50 [18]: 20.9 µM (active)

O=C(CSc1nccc(O)n1)Nc1ccc(Oc2ccccc2)cc1
CC50 [19]: > 100 µM (active)

O=C(c1ccoc1)N1CCN(c2cc(-c3ccccc3F)nc3cc(-c4cccc(Cl)c4)nn23)CC1
EC50 [20]: 5.75 µM (active) | EC50 [21]: 1.59 µM (active)

Nc1n[nH]c2ccc(-c3cc(Cc4ccccc4)no3)cc12
Ki [22]: > 10 µM (inactive) | Ki [23]: 1 µM (active) | Ki [24]: 0.316 µM (active) | Ki [25]: 0.0316 µM (active) | Ki [26]: 1.58 µM (active) | Ki [27]: 0.501 µM (active) | Ki [28]: 0.01 µM (active) | Ki [29]: 6.31 µM (active) | Ki [30]: 0.158 µM (active)

O=C(On1c(-c2ccccc2)nc2ccccc2c1=O)c1ccco1
EC50 [31]: > 50 µM (active) | IC50 [9]: 4.57 µM (active) | IC50 [10]: 8.91 µM (active)
